Several values for one entry are separate records, joined by “and”; a condition that tells them apart may be missing. Identical values can stand only once. Where no end group is shown, it is not given here.
Legend:
[1] = biological target: T1, I^125 ACTH (1-39) (Homo sapiens, UniProt P01189); test: 125I-ACTH binding to peptide-coated microtiter wells; conditions: for Bound CPM 125I-ACTH: coated wells; for Bound CPM 125I-ACTH + excess ACTH: excess unlabelled ACTH
T1 construct: I^125 ACTH (1-39) (New England Nuclear Boston, Mass.); purchased New England Nuclear, Boston, Mass
T1 sequence (P01189 138-176 limits assumed): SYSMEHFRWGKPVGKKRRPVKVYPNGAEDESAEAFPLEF
Experimental: Utilizing techniques described in Example 1B, polyvinyl microtiter wells were coated with 3'-5' HTCA from a 1 mM solution thereof or with BSA.
The BSA and 3'-5' HTCA coated wells were washed and then treated with one of three solutions of I^125 ACTH (1-39) (New England Nuclear Boston, Mass.) having different concentrations. After a forty five minute incubation period the solution was removed and the microtiter wells extensively washed. The microtiter wells were separated and assayed for iodine^125 content in a Beckman Gamma 5500 gamma counter. Bound ^125 I-ACTH was measured in duplicate at three concentrations in the absence and presence of excess unlabelled ACTH.
Utilizing the cRNA sequence and HTCA sequence shown in Table 8 of Example 1A, a series of peptides having a carboxy-terminal portion of the HTCA amino acid were synthesized. A pentamer (5-mer) contained the amino acid sequence: H^2 N-Phe-His-Gly-Val-Arg-COOH. A decamer (10-mer) contained the amino acid sequence: H^2 N-[…]COOH. A twenty membered peptide (20-mer) contained the amino acids sequence: H2 N-[…] Val-ArQ-COOH. Each of these peptides was used to coat microtiter wells and the coated wells tested for the ability to hind ^125 I-ACTH as described in Example 1C.
A 24-mer HTCA variant (R-HTCA) with reversed amino acid sequence directionality (amino-terminal and carboxy-terminal ends being reversed) was synthesized and had the following sequence: H2 N-[…] Arg-His-Leu-His-Val-Gly-COOH. The well-coating and ^125 I-ACTH binding procedures were performed as described in Example 1-C and the resultant data shown in Table 11.

[2] = system: angiotensin II receptors; test: Binding of [125I] angiotensin II to isolated hepatic receptor; parameters: species or system Rabbit; conditions: concentration inhibiting binding of radiolabelled angiotensin II by 50%; 0.25 nM [125I] angiotensin II; 60 minutes 20 C
Experimental: Inhibition of angiotensin II binding to angiotensin II receptors by complementary peptides was tested with measurement through the use of radioactive angiotensin II. Rabbit livers were homogenized, and were centrifuged in order to isolate particles sedimenting between 1,000 and 100,000 xg. Binding activity was solublized with 1% digitonin, followed by ammonium sulfate fractionation between 49 and 65% satuation followed by DEAE- cellulose chromatography at pH 7.5 using a linear gradient between 0.0 and 0.3 M KCl. The partially purified, solubilized receptor preparation bound 17 pmoles of angiotensin II per […] protein when analyzed by Scatchard analysis, indicating a purity of approximately 0.1%.
The standard assay for binding of angiotensin II to the receptor is as follows: The complete system (150 ul) contains 30 mM Tris-HCl, pH 7.5, 2.5 mM K2 EDTA, 0.2 mM PCMS, 0.25 nM [^125 I] angiotensin II ca. 100,000 cpm), 100 ug BSA, 0.25% (V/V) Brij 99 and 30 ug of partially purified receptor. […] Tubes are vortexed and then allowed to stand 10 minutes at 4° C., after which they are centrifuged and their supernatants, containing protein-bound angiotensin II, are counted.
The complete system under these conditions regularly yields about 10,000 cpm of bound radioactivity. […] Residual binding of radioactivity in this control was 35-45%. […]

[3] = biological target: T2, ACTH (1-24) (Homo sapiens, UniProt P01189); test: ELISA binding of ACTH (1-24) to HTCA-coated microtiter wells
T2 construct: 10 ug synthetic ACTH (1-24) in PBS-Tween buffer; purchased Organon (West Orange, N.J.); host or cells: chemical synthesis
Experimental: From 1 to 25 micrograms (ug) per well of HTCA or insulin in carbonate-bicarbonate coating buffer were added to 96 well round bottom microtiter plates and incubated at 4° C. for 8 hr. The plates were then washed with phosphate buffered saline PBS)-Tween 20 (Sigma Chemical Co., St. Louis, Mo.) buffer.
To the insulin-coated wells and to some of the HTCA-coated wells was added 10 ug synthetic ACTH (1-24) in PBS-Tween buffer. Control wells (HTCA alone) contained only PBS-Tween. The plates were incubated at room temperature for 2 hr. and then washed three times with PBS-Tween buffer. […] Following 3 washes with PBS-Tween buffer, alkaline phosphatase-conjugated goat anti-rabbit Ig G (Miles Laboratories, Elkharbt, Ind.) in PBS-Tween buffer (1:300 dilution was added. After inculation at room temperature for 1 hr, the plates were washed three times with PBS-Tween buffer and each well was treated with 200 microliters (ul) of p-nitrophenyl phosphate (1 mg/ml in carbonate-bicarbonate buffer) for 11/2 hr. at room temperature. The enzymatic reaction was then stopped by the addition of 3N NaOH (50 ul) to each well and the optical absorbance of p-nitrophenol the alkaline phosphatase product, was measured at 405 nm. The ACTH bound to the coated microtiter wells was measured by this enzyme-linked immunoabsorbent assay (EL1SA). […]

[4] = system: LHRH-stimulated release of LH from pituitary cells; test: Reverse hemolytic plaque assay, LHRH-stimulated LH release from pituitary cells; type: cell-based, rat; conditions: Exp. 1 (Pre); 5x10^-10 M LHRH + peptide 10^-4 M
Experimental: A reverse hemolytic plaque assay (Smith, et al.), Method in Enzymology, 124, p.
Plaques were analyzed by determining plaque area with an image analysis (Bioguant or Image Technology Corp. Model 300) of ^125×-500 × microscopic enlargements.

Compound | Bound CPM 125I-ACTH ([1]; 1:3 dilution 125I-ACTH) | Bound CPM 125I-ACTH + excess ACTH ([1]; 1:3 dilution 125I-ACTH) | Bound CPM 125I-ACTH ([1]; 1:9 dilution 125I-ACTH) | Bound CPM 125I-ACTH + excess ACTH ([1]; 1:9 dilution 125I-ACTH) | Bound CPM 125I-ACTH ([1]; conc 125I-ACTH) | Bound CPM 125I-ACTH + excess ACTH ([1]; conc 125I-ACTH) | other results
RVGHFVEAPALRHALLPARHLHVG [R-HTCA] | 2,997 CPM and 3,209 CPM | 140 CPM and 121 CPM | 1,101 CPM and 1,161 CPM | 65 CPM and 69 CPM | 10,392 CPM and 10,709 CPM | 303 CPM and 325 CPM | binding of 125I-ACTH to coated peptide (in words) [1]: significant affinity for ACTH
Ac-KGVYIHAL-NH2 [CCA-AII (Ac, Am), Ac--LYS--GLY--VAL--TYR--ILE--HIS--ALA--LEU--Am] |  |  |  |  |  |  | ID50 [2]: 3,100 nM
GVHLHRAPLLAHRLAPAEVFHGVR [HTCA] |  |  |  |  |  |  | specific part of ACTH-HTCA binding ([3]; wells coated 3.7 nmol/well HTCA, ELISA): about 90%
GLUGLU-VAL-LYS-GLY-VAL-TYR-ILE-HIS-ALA-LEU (EEVKGVYIHAL; printed: GLUGLU-VAL-LYS-GLY-VAL-TYR-ILE-HIS-ALA-LEU) [CCA-AI] |  |  |  |  |  |  | ID50 [2]: 490 nM
FHGVR [5-mer, H^2 N-Phe-His-Gly-Val-Arg-COOH] | 3,514 CPM and 3,655 CPM | 97 CPM and 95 CPM | 995 CPM and 993 CPM | 56 CPM and 52 CPM | 10,252 CPM and 11,388 CPM | 233 CPM and 245 CPM | 
RMRYLVKATPFGHPFFAAGHFHMG [3'-5' HTCA] | 590 CPM | 287 CPM and 299 CPM |  | 191 CPM and 183 CPM |  | 616 CPM and 615 CPM | binding of 125I-ACTH to coated peptide (in words) [1]: binds
insulin: control coating protein [reference compound] |  |  |  |  |  |  | binding of synthetic ACTH (1-24) to coated wells ([3]; 10 ug ACTH (1-24), coating 1 to 25 ug/well): nor does ACTH bind
APAEVFHGVR [10-mer] | 3391 CPM and 2931 CPM | 132 CPM and 143 CPM | 872 CPM and 1062 CPM | 62 CPM and 58 CPM | 8,927 CPM and 9,072 CPM | 345 CPM and 350 CPM | 
C[C@H](N)C(=O)NCC(=O)N[C@H]1CSSC[C@@H](C(=O)O)NC(=O)[C@H](CO)NC(=O)[C@H]([C@@H](C)O)NC(=O)[C@H](Cc2ccccc2)NC(=O)[C@H]([C@@H](C)O)NC(=O)[C@H](CCCCN)NC(=O)[C@H](Cc2c[nH]c3ccccc23)NC(=O)[C@H](Cc2ccccc2)NC(=O)[C@H](Cc2ccccc2)NC(=O)[C@H](CC(N)=O)NC(=O)[C@H](CCCCN)NC1=O [Somatostatin] |  |  |  |  |  |  | plaque area, percentage response to control (5x10^-10 M LHRH) [4]: 103%
HRAPLLAHRLAPAEVFHGVR [20-mer] | 613 CPM and 625 CPM | 113 CPM and 83 CPM | 238 CPM and 215 CPM | 39 CPM and 48 CPM | 1978 CPM and 1768 CPM | 229 CPM and 213 CPM | 
